Usually Ki stands for a dissociation constant, usually derived from enzyme kinetics or from competition with a known ligand.

For the test, the target named is GCN2 kinase (Homo sapiens, UniProt Q9P2K8). The test can be described thus: GCN2 enzyme inhibition assay (Transcreener ADP2 fluorescence polarization). The format is biochemical. Conditions: compounds of Formula II; 280 μM ATP, 4 nM GCN2 kinase. In short, it runs like this: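 FP detection of ADP (antibody plus Alexa633 tracer) after a 1 h, 25 °C kinase reaction. Enzyme 4 nM, ATP 280 μM, (RS)7 peptide 200 μM, Tris pH 7.5 buffer with MgCl2 and DTT. Percent inhibition fitted by non-linear tight-binding algorithm for IC50 and Ki(app).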
GCN2 kinase, sequence (Q9P2K8 whole entry): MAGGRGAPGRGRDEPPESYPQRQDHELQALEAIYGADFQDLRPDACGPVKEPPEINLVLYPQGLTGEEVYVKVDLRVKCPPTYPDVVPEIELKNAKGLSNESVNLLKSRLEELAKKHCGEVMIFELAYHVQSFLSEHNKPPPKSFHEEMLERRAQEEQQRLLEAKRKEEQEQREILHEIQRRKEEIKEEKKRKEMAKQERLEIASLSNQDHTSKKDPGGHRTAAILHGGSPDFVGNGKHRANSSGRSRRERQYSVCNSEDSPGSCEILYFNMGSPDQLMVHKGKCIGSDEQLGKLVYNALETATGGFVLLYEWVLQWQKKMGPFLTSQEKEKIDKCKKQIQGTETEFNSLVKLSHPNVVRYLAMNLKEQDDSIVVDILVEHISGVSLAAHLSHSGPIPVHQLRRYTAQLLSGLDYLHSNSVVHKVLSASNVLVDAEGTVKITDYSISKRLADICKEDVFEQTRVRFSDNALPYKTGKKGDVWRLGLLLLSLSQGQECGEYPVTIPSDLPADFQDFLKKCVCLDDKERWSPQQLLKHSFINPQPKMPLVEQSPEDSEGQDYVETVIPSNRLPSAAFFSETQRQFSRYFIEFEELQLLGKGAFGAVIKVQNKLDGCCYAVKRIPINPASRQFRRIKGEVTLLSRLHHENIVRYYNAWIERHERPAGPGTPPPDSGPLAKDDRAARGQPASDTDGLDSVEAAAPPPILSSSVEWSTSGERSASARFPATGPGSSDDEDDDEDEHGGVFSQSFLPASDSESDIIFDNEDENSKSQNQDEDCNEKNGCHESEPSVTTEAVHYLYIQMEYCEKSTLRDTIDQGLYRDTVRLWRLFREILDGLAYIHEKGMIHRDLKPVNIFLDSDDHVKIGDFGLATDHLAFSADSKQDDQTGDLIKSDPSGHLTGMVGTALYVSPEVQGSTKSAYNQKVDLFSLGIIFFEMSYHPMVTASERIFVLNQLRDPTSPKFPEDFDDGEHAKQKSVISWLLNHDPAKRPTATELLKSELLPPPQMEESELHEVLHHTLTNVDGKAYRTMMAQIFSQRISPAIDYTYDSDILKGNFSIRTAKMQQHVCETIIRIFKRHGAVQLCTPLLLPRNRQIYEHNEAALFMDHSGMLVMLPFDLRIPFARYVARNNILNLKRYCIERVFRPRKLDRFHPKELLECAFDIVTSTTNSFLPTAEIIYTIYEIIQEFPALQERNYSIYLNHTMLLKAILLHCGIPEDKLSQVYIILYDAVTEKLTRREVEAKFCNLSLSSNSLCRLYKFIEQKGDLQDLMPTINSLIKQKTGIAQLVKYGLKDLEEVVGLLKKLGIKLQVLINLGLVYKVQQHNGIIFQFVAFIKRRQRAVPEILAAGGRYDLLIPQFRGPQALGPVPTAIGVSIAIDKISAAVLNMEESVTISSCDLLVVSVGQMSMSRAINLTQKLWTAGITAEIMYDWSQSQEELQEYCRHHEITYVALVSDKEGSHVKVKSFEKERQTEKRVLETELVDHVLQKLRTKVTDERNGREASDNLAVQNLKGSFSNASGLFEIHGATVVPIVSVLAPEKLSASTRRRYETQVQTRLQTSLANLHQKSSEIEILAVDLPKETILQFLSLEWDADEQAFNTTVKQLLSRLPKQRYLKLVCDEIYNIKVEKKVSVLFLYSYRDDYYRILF
Compound `CC1C(N=S(C)(C)=O)CCCN1c1cc(-c2cnc3ccc(C(F)F)nn23)ncn1` (centres unmarked) [II-578, ((1-(6-(6-(Difluoromethyl)imidazo[1,2-b]pyridazin-3-yl)pyrimidin-4-yl)-2-methylpiperidin-3-yl)imino)dimethyl-λ^6-sulfanone] registered a Ki of under 10 nM.
The compound `CC1C(N=S(C)(C)=O)CCCN1c1cc(-c2cnc3ccc(C(F)F)nn23)ncn1` (centres unmarked) [II-579, ((1-(6-(6-(Difluoromethyl)imidazo[1,2-b]pyridazin-3-yl)pyrimidin-4-yl)-2-methylpiperidin-3-yl)imino)dimethyl-λ^6-sulfanone] registered a Ki of 10 to 1000 nM.
The same measure for `CS(=N)(=O)c1cccc(-c2cc(-c3cnc4ccc(C(F)F)nn34)ncn2)c1` (centres unmarked) [II-580, (3-(6-(6-(Difluoromethyl)imidazo[1,2-b]pyridazin-3-yl)pyrimidin-4-yl)phenyl)(imino)(methyl)-λ^6-sulfanone]: 10 to 1000 nM; for `CC1C(CN=S(C)(C)=O)CCCN1c1cc(-c2cnc3ccc(C(F)F)nn23)ncn1` (centres unmarked) [II-583, (((1-(6-(6-(Difluoromethyl)imidazo[1,2-b]pyridazin-3-yl)pyrimidin-4-yl)-2-methylpiperidin-3-yl)methyl)imino)dimethyl-λ^6-sulfanone]: over 1000 nM; for `CC1C(CN=S(C)(C)=O)CCCN1c1cc(-c2cnc3ccc(C(F)F)nn23)ncn1` (centres unmarked) [II-584, (((1-(6-(6-(Difluoromethyl)imidazo[1,2-b]pyridazin-3-yl)pyrimidin-4-yl)-2-methylpiperidin-3-yl)methyl)imino)dimethyl-λ^6-sulfanone]: 10 to 1000 nM.
The same measure for `CC1CC(CS(C)(=O)=O)C(C)N(c2cc(-c3cnc4ccc(C(F)F)nn34)ncn2)C1` (centres unmarked) [II-587, 6-(Difluoromethyl)-3-[6-[2,5-dimethyl-3-(methylsulfonylmethyl)-1-piperidyl]pyrimidin-4-yl]imidazo[1,2-b]pyridazine]: under 10 nM; for `CC1CC(CS(C)(=O)=O)C(C)N(c2cc(-c3cnc4ccc(C(F)F)nn34)ncn2)C1` (centres unmarked) [II-588, 6-(difluoromethyl)-3-[6-[2,5-dimethyl-3-(methylsulfonylmethyl)-1-piperidyl]pyrimidin-4-yl]imidazo[1,2-b]pyridazine]: 10 to 1000 nM.
The value for `CS(=O)(=O)NC1CN(c2cc(-c3cnc4ccc(C(F)F)nn34)ncn2)CCC1(F)F` (centres unmarked) [II-589, N-(1-(6-(6-(Difluoromethyl)imidazo[1,2-b]pyridazin-3-yl)pyrimidin-4-yl)-4,4-difluoropiperidin-3-yl)methanesulfonamide] was 10 to 1000 nM; that for `CC(=O)N1CCN(c2cc(-c3cnc4ccc(Cl)nn34)ncn2)CC1` [II-590, 1-[4-[6-(6-Chloroimidazo[1,2-b]pyridazin-3-yl)pyrimidin-4-yl]piperazin-1-yl]ethanone] was over 1000 nM; that for `CC1CC(CNS(C)(=O)=O)CN(c2cc(-c3cnc4ccc(C(F)F)nn34)ncn2)C1C` (centres unmarked) [II-591, N-((1-(6-(6-(Difluoromethyl)imidazo[1,2-b]pyridazin-3-yl)pyrimidin-4-yl)-5,6-dimethylpiperidin-3-yl)methyl)methanesulfonamide] was under 10 nM.
Compound `CC1CC(CNS(C)(=O)=O)CN(c2cc(-c3cnc4ccc(C(F)F)nn34)ncn2)C1C` (centres unmarked) [II-592, N-((1-(6-(6-(Difluoromethyl)imidazo[1,2-b]pyridazin-3-yl)pyrimidin-4-yl)-5,6-dimethylpiperidin-3-yl)methyl)methanesulfonamide] returned a Ki of under 10 nM.
The same measure for `CS(C)(=O)=NCc1cccc(-c2cc(-c3cnc4ccc(C(F)F)nn34)ncn2)c1` [II-595, ((3-(6-(6-(Difluoromethyl)imidazo[1,2-b]pyridazin-3-yl)pyrimidin-4-yl)benzyl)imino)dimethyl-λ^6-sulfanone]: 10 to 1000 nM; for `CS(=O)(=O)NC1CN(c2cc(-c3cnc4ccc(C(F)F)nn34)ncn2)CCC1(F)F` (centres unmarked) [II-596, N-(1-(6-(6-(Difluoromethyl)imidazo[1,2-b]pyridazin-3-yl)pyrimidin-4-yl)-4,4-difluoropiperidin-3-yl)methanesulfonamide]: 10 to 1000 nM.
The same measure for `CS(=O)(=O)NC1CN(c2cc(-c3cnc4ccc(C(F)F)nn34)ncn2)CCC1(F)F` (centres unmarked) [II-597, N-(1-(6-(6-(Difluoromethyl)imidazo[1,2-b]pyridazin-3-yl)pyrimidin-4-yl)-4,4-difluoropiperidin-3-yl)methanesulfonamide]: 10 to 1000 nM; for `CS(=N)(=O)Cc1cccc(-c2cc(-c3cnc4ccc(C(F)F)nn34)ncn2)c1` (centres unmarked) [II-598, (3-(6-(6-(Difluoromethyl)imidazo[1,2-b]pyridazin-3-yl)pyrimidin-4-yl)benzyl)(imino)(methyl)-λ^6-sulfanone]: 10 to 1000 nM; for `CS(C)(=O)=Nc1cccc(-c2cc(-c3cnc4ccc(C(F)F)nn34)ncn2)c1` [II-599, [3-[6-[6-(Difluoromethyl)imidazo[1,2-b]pyridazin-3-yl]pyrimidin-4-yl]phenyl]imino-dimethyl-oxo-λ^6-sulfane]: 10 to 1000 nM.
The same measure for `CC1C(NS(C)(=O)=O)CCCN1c1cc(-c2cnc3ccc(C(F)F)nn23)ncn1` (centres unmarked) [II-600, N-(1-(6-(6-(Difluoromethyl)imidazo[1,2-b]pyridazin-3-yl)pyrimidin-4-yl)-2-methylpiperidin-3-yl)methanesulfonamide]: over 1000 nM; for `CC1C(NS(C)(=O)=O)CCCN1c1cc(-c2cnc3ccc(C(F)F)nn23)ncn1` (centres unmarked) [II-601, N-(1-(6-(6-(Difluoromethyl)imidazo[1,2-b]pyridazin-3-yl)pyrimidin-4-yl)-2-methylpiperidin-3-yl)methanesulfonamide]: under 10 nM.
`CC1C(NS(C)(=O)=O)CCCN1c1cc(-c2cnc3ccc(C(F)F)nn23)ncn1` (centres unmarked) [II-603, N-(1-(6-(6-(Difluoromethyl)imidazo[1,2-b]pyridazin-3-yl)pyrimidin-4-yl)-2-methylpiperidin-3-yl)methanesulfonamide] gave a Ki of 10 to 1000 nM.
Compound `C[C@H]1C[C@@H](CS(C)(=N)=O)[C@@H](C)N(c2cc(-c3cnc4ccc(C(F)F)nn34)ncn2)C1` (stereo partly drawn) [II-604, (((2R,3R,5S)-1-(6-(6-(Difluoromethyl)imidazo[1,2-b]pyridazin-3-yl)pyrimidin-4-yl)-2,5-dimethylpiperidin-3-yl)methyl)(imino)(methyl)-λ^6-sulfanone] came in with a Ki of 10 to 1000 nM.
The value for `C[C@H]1C[C@@H](CS(C)(=N)=O)[C@@H](C)N(c2cc(-c3cnc4ccc(C(F)F)nn34)ncn2)C1` (stereo partly drawn) [II-605, (((2R,3R,5S)-1-(6-(6-(Difluoromethyl)imidazo[1,2-b]pyridazin-3-yl)pyrimidin-4-yl)-2,5-dimethylpiperidin-3-yl)methyl)(imino)(methyl)-λ^6-sulfanone] was 10 to 1000 nM; that for `C[C@@H]1C[C@H](CS(C)(=N)=O)[C@H](C)N(c2cc(-c3cnc4ccc(C(F)F)nn34)ncn2)C1` (stereo partly drawn) [II-606, (((2S,3S,5R)-1-(6-(6-(Difluoromethyl)imidazo[1,2-b]pyridazin-3-yl)pyrimidin-4-yl)-2,5-dimethylpiperidin-3-yl)methyl)(imino)(methyl)-λ^6-sulfanone] was under 10 nM.
The same measure for `CC(C)(O)C1CCCN(c2cc(-c3cnc4ccc(C(F)F)nn34)ncn2)C1` (centres unmarked) [II-608, 2-(1-(6-(6-(Difluoromethyl)imidazo[1,2-b]pyridazin-3-yl)pyrimidin-4-yl)piperidin-3-yl)propan-2-ol]: 10 to 1000 nM.
The same measure for `CC(NS(C)(=O)=O)c1cccc(-c2cc(-c3cnc4ccc(C(F)F)nn34)ncn2)c1` (centres unmarked) [II-609, N-[1-[3-[6-[6-(Difluoromethyl)imidazo[1,2-b]pyridazin-3-yl]pyrimidin-4-yl]phenyl]ethyl]methanesulfonamide]: under 10 nM.
Compound `Cc1cc(CN=S(C)(C)=O)cc(-c2cc(-c3cnc4ccc(C(F)F)nn34)ncn2)c1` [II-610, [3-[6-[6-(Difluoromethyl)imidazo[1,2-b]pyridazin-3-yl]pyrimidin-4-yl]-5-methyl-phenyl]methylimino-dimethyl-oxo-λ^6-sulfane] registered a Ki of 10 to 1000 nM.
`Cc1cc(C(=O)N=S(C)(C)=O)cc(-c2cc(-c3cnc4ccc(C(F)F)nn34)ncn2)c1` [II-611, 3-(6-(6-(difluoromethyl)imidazo[1,2-b]pyridazin-3-yl)pyrimidin-4-yl)-N-(dimethyl(oxo)-λ^6-sulfanylidene)-5-methylbenzamide] yielded an inhibition constant Ki of 10 to 1000 nM.
The same measure for `Cc1cc(CNS(C)(=O)=O)cc(-c2cc(-c3cnc4ccc(C(F)F)nn34)ncn2)c1` [II-612, N-(3-(6-(6-(Difluoromethyl)imidazo[1,2-b]pyridazin-3-yl)pyrimidin-4-yl)-5-methylbenzyl)methanesulfonamide]: under 10 nM.
Compound `CC1CN(c2cc(-c3cnc4ccc(C(F)F)nn34)ncn2)CC(CO)O1` (centres unmarked) [II-615, (4-(6-(6-(Difluoromethyl)imidazo[1,2-b]pyridazin-3-yl)pyrimidin-4-yl)-6-methylmorpholin-2-yl)methanol] returned a Ki of 10 to 1000 nM.
The same measure for `CC1CN(c2cc(-c3cnc4ccc(C(F)F)nn34)ncn2)CC(CO)O1` (centres unmarked) [II-616, (4-(6-(6-(Difluoromethyl)imidazo[1,2-b]pyridazin-3-yl)pyrimidin-4-yl)-6-methylmorpholin-2-yl)methanol]: 10 to 1000 nM.
The compound `CC1C(CNS(C)(=O)=O)C(C)(O)C(C)CN1c1cc(-c2cnc3ccc(C(F)F)nn23)ncn1` (centres unmarked) [II-617, N-((1-(6-(6-(Difluoromethyl)imidazo[1,2-b]pyridazin-3-yl)pyrimidin-4-yl)-4-hydroxy-2,4,5-trimethylpiperidin-3-yl)methyl)methanesulfonamide] gave a Ki of 10 to 1000 nM.
The same measure for `CC(NS(C)(=O)=O)C1CCCN(c2cc(-c3cnc4ccc(C(F)F)nn34)ncn2)C1` (centres unmarked) [II-619, N-(1-(1-(6-(6-(Difluoromethyl)imidazo[1,2-b]pyridazin-3-yl)pyrimidin-4-yl)piperidin-3-yl)ethyl)methanesulfonamide]: 10 to 1000 nM; for `CC(NS(C)(=O)=O)C1CCCN(c2cc(-c3cnc4ccc(C(F)F)nn34)ncn2)C1` (centres unmarked) [II-620, N-(1-(1-(6-(6-(Difluoromethyl)imidazo[1,2-b]pyridazin-3-yl)pyrimidin-4-yl)piperidin-3-yl)ethyl)methanesulfonamide]: 10 to 1000 nM.
